Measurements: article PMC9317670, “Temporal and Wash-Out Studies Identify Medicines for Malaria Venture Pathogen Box Compounds with Fast-Acting Activity against Both Trypanosoma cruzi and Trypanosoma brucei” (Microorganisms, 2022)
Read-outs that look alike come from different tables or passages of the source.

Legend:
[1] = system: T.b. brucei bloodstream 427 strain parasites; assay: T.b. brucei 72 h REDOX-based (resazurin) viability assay; type: cell-based, Trypanosoma brucei brucei; settings: for Emax / IC50 / Emax % (T.b. brucei): 72 h
[2] = system: T. cruzi Tulahuen strain parasites in 3T3 host cells; assay: T. cruzi 48 h image-based assay; type: cell-based, Trypanosoma cruzi
HEK293 cells = assay: HEK293 cytotoxicity assay; type: cell-based, human; settings: HEK293, 72 h, NA = not active, highest dose 79 µM unless given
HEPG2 cells = assay: HEPG2 cytotoxicity assay; type: cell-based, human
T. cruzi [3] = assay: T. cruzi temporal image-based assay, 24 h exposure; type: cell-based, Trypanosoma cruzi; settings: for IC50: read-out: IC50 24 h T. cruzi
T. cruzi [4] = assay: T. cruzi compound wash off assay (48 h with compound, wash off, 72 h without); type: cell-based, Trypanosoma cruzi; settings: for Fold Change of IC50, wash off vs 48 h: IC50 from 48 h incubation to IC50 following wash off and further 72 h; for IC50: read-out: IC50 Wash Off
T.b. brucei [5] = assay: T.b. brucei temporal viability (time-kill) assay, 24 h, PrestoBlue; type: cell-based, Trypanosoma brucei brucei; settings: for IC50: read-out: IC50 24 h T.b. brucei
Description: Time-kill assays was undertaken as previously described, using the REDOX reagent PrestoBlue® [24]. […] Control compounds were added at the same concentrations at outlined for the resazurin-based assays.

T.b. brucei [6] = assay: T.b. brucei temporal viability (time-kill) assay, 48 h, PrestoBlue; type: cell-based, Trypanosoma brucei brucei; settings: for IC50: read-out: IC50 48 h T.b. brucei
T. cruzi and T.b. brucei = assay: Speed of action and cidality classification from temporal and wash off assays; type: cell-based, Trypanosoma cruzi, Trypanosoma brucei brucei; settings: for Speed of Action (FA/SA): TC = T. cruzi, TBB = T.b. brucei; for Speed of Action (Table 5): prioritised compounds, Fast/Slow
T.b. rhodesiense STIB900 = T.b. rhodesiense STIB900 assay, 72 h; type: cell-based; settings: Trypanosoma brucei; STIB900, 72 h; unit inferred; read-out: IC50 T. bR (T.b. rhodesiense)
T.b. gambiense STIB930 = T.b. gambiense STIB930 assay, 72 h; type: cell-based; settings: Trypanosoma brucei, unit inferred, read-out: IC50 T. Bg STIB930 (T.b. gambiense)
[7] = dosed orally in mice; ref [51]; cited from earlier work
[8] = target: T. cruzi recombinant CYP51 (TcCYP51) (Trypanosoma cruzi, UniProt Q7Z1V1); assay: biochemical; settings: criterion: IC50 within a log difference to posaconazole
Sequence of T. cruzi recombinant CYP51 (TcCYP51) (Q7Z1V1 whole entry): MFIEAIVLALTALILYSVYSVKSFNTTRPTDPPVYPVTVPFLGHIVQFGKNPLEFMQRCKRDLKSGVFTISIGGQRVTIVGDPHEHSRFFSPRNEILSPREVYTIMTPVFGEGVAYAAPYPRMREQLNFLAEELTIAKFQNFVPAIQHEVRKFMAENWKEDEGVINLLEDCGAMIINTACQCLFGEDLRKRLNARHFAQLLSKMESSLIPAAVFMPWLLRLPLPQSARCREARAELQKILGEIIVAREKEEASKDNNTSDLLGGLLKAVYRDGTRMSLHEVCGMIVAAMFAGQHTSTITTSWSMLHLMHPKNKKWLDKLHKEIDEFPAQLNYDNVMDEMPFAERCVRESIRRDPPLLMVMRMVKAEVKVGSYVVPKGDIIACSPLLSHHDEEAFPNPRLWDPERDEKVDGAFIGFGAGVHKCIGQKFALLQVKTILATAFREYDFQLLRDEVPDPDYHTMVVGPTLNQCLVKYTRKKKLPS
Description: The inhibitory properties of compounds against T. cruzi recombinant CYP51 (TcCYP51) was determined using an in vitro assay as previously described [33, 41]. Compounds which inhibited T. cruzi in an image-based assay were tested against TcCYP51 in log concentrations (100, 33, 10, 3.3, 1.0, 0.33, 0.1 and 0 µM), with one replicate per dose, as previously described [41]. The control compound posaconazole was incubated at the same concentrations as the test compounds, over two replicates.
Of the fast-acting compounds, if there was more than one compound with activity against T. cruzi, one representative compound from each chemical class was selected. […] Slow-acting compounds were also tested for activity against TcCYP51. The criteria defining a compound with TcCYP51 activity required that the IC50 value was within a log difference to posaconazole, as previously reported [33].

[9] = selectivity index in relation to HEK293 cells
[10] = selectivity index in relation to HEPG2 cells
[11] = Trypanosoma cruzi, TULAHUEN, 48 h; read-out: Emax % (T. cruzi) (converted)
[12] = Trypanosoma cruzi, TULAHUEN, 48 h; read-out: IC50 (T. cruzi)
[13] = selectivity index in relation to 3T3 host cells; highest dose 3T3 73 µM
[14] = Trypanosoma cruzi, NA = not active at given concentration
[15] = Trypanosoma cruzi, T. cruzi, 48 h incubation, wash off, further 72 h
[16] = Trypanosoma brucei, read-out: Emax 24 h T.b. brucei (converted)
[17] = Trypanosoma brucei, read-out: Emax 48 h T.b. brucei (converted)
[18] = 48 h; read-out: IC50 (T. cruzi)
[19] = HEPG2, 72 h, NA = not active, highest dose 79 µM unless given, read-out: IC50 (HEP) (converted)
[20] = T. cruzi, 48 h incubation, wash off, further 72 h

Structure (SMILES) | Emax ([1]; Trypanosoma brucei) [%] | IC50 ([1]; Trypanosoma brucei) [nM] | SI (T.b. brucei) HEK [1, 9] | SI (T.b. brucei) (HEP) [1, 10] | Emax [2, 11] [%] | IC50 [2, 12] [nM] | SI (T. cruzi) 3T3 [2, 13] | SI (T. cruzi) HEK [2, 9] | SI (T. cruzi) (HEP) [2, 10] | IC50 (T. cruzi [3]; [14]) [nM] | Fold Change of IC50, wash off vs 48 h (T. cruzi [4]; T. cruzi) [fold] | IC50 (T. cruzi [4]; [15]) [nM] | Emax (T.b. brucei [5]; [16]) [%] | IC50 (T.b. brucei [5]; Trypanosoma brucei) [nM] | Emax (T.b. brucei [6]; [17]) [%] | IC50 (T.b. brucei [6]; Trypanosoma brucei) [nM] | Speed of Action (FA/SA) (T. cruzi and T.b. brucei) | IC50 (T.b. rhodesiense STIB900) [nM] | IC50 (T.b. gambiense STIB930) [nM] | Speed of Action (Table 5) (T. cruzi and T.b. brucei) | further results
COc1ccc(C[C@H](N)C(=O)N[C@H]2[C@@H](O)[C@H](n3cnc4c(N(C)C)ncnc43)O[C@@H]2CO)cc1 [Puromycin, reference compound] | 100 | 63 ± 0.41 | 12 | 4.0 | 100 | 5600 ± 11 | 1.2 | 0.13 | 0.044 | 3500 ± 440 | 0.50 | 2800 ± 130 | 100 | 96 ± 13 | 100 | 97 ± 0.42 | FA (Fast-acting (FA) = IC50 value can be determined following 24 h incubation, <10-fold difference in the IC50 value from 24 to 72 h) |  |  |  | IC50 (HEK293 cells; Homo sapiens): 730 ± 270 nM; IC50 (HEPG2 cells; Homo sapiens, HEPG2, 72 h, NA = not active, highest dose 79 µM unless given, read-out: IC50 (HEP) (converted)): 250 nM
O=C(NCc1nnc2n1CCCCC2)c1ccc(-c2ccc(F)cc2)o1 [MMV 688796] | 99 | 120 ± 23 | >658 (>658) | >658 (>658) | 100 | 1200 ± 400 | >61 | >66 (>66) | >66 (>66) | 2400 ± 1300 | 1.1 | 1100 ± 480 | 82 | 240 ± 53 | 100 | 97 ± 4.8 | FA (Fast-acting (FA) = IC50 value can be determined following 24 h incubation, <10-fold difference in the IC50 value from 24 to 72 h) | 46 ± 31 | 160 ± 11 | Fast | Emax (T. cruzi [3]; Trypanosoma cruzi): 91%; Emax (T. cruzi [4]; [15]): 98%; Half-life [7]: 3.9 h
N=C(N)c1ccc(OCCCCCOc2ccc(C(=N)N)cc2)cc1 [Pentamidine, reference compound] | 100 | 3.1 ± 0.1 | >216 |  |  |  |  |  |  |  |  |  | 99 | 12 ± 2.1 | 100 | 0.2 ± 0.0021 | FA (Fast-acting (FA) = IC50 value can be determined following 24 h incubation, <10-fold difference in the IC50 value from 24 to 72 h) |  | 3 ± 2 |  | IC50 HEK (HEK293 cells): NA at 0.67 µM (NT)
Nc1nc2ccc(-c3cncc(Oc4ccc(F)cc4)c3)cc2[nH]1 [MMV 687248] | 99 | 510 ± 45 |  |  |  |  | >49 | 53 | 13 |  | 1.3 |  |  | 930 ± 47 |  | 200 ± 32 | FA (Fast-acting (FA) = IC50 value can be determined following 24 h incubation, <10-fold difference in the IC50 value from 24 to 72 h) | 1200 ± 540 | 240 ± 22 | Fast | SI (T.b. brucei) (HEP) [1]: 38; SI (T.b. brucei) HEK [1]: > 155; Emax ([2]; Trypanosoma cruzi, TULAHUEN, 48 h, read-out: Emax % (T. cruzi)): 99%; IC50 ([2]; Trypanosoma cruzi, TULAHUEN, 48 h, read-out: IC50 (T. cruzi)): 1500 ± 130 nM; IC50 (HEPG2 cells; Homo sapiens, HepG2, 72 h, read-out: IC50 (HEP)): 19600 nM; IC50 (T. cruzi [3]; Trypanosoma cruzi): 4100 ± 1300 nM; IC50 (T. cruzi [4]; Trypanosoma cruzi): 2000 ± 39 nM; Emax (T.b. brucei [5]; Trypanosoma brucei, read-out: Emax 24 h T.b. brucei): 87%; Emax (T.b. brucei [6]; Trypanosoma brucei, read-out: Emax 48 h T.b. brucei): 99%
O=C(NCCc1ccn(-c2ccccc2)n1)C1CCCCC1 [MMV 688795] | 99 | 130 ± 52 | >608 (>608) | >608 (>608) | 100 | 580 ± 50.3 | >126 | >136 (>136) | >136 (>136) | 1300 ± 120 | 0.74 | 380 ± 56 | 99 | 290 ± 4.7 | 99 | 106 ± 20 | FA (Fast-acting (FA) = IC50 value can be determined following 24 h incubation, <10-fold difference in the IC50 value from 24 to 72 h) | 79 ± 0.7 | 630 ± 1.4 | Fast | Emax (T. cruzi [3]; Trypanosoma cruzi): 89%
CN(C)c1cc(NC(=O)Nc2ccccc2)c2ccccc2n1 [MMV 006901] |  |  | 3.7 | 1.8 |  |  | >60 ^4 | 15 | 7.1 |  |  |  |  |  |  |  |  |  |  |  | Emax % (T.b. brucei) [1]: 99%; IC50 [1]: 4900 ± 8.5 nM; Emax % (T. cruzi) ([2]; 48 h): 100%; IC50 [2, 18]: 1200 ± 110 nM; IC50 (HEK293 cells): 18000 ± 810 nM; IC50 (HEPG2 cells; [19]): 9800 nM
CCc1ccccc1-n1c(C)cn2c3c(=O)n(C(C(=O)OC)C(C)C)c(=O)n(C)c3nc12 (stereo not drawn) [MMV 688550] | 99 | 25 ± 0.83 | >3160 (>3160) | >3160 (>3160) | 100 | 530 ± 110 | >138 | >149 (>149) | >149 (>149) | 900 ± 170 | 0.58 | 310 ± 67 | 100 | 22 ± 14 | 99 | 21 ± 0.53 | FA (Fast-acting (FA) = IC50 value can be determined following 24 h incubation, <10-fold difference in the IC50 value from 24 to 72 h) | 80 ± 1.4 | < 1 | Fast | Emax (T. cruzi [3]; Trypanosoma cruzi): 80%; Inhibition of TcCYP51 (in words) [8]: did not display activity
O=C(Cn1ccnc1[N+](=O)[O-])NCc1ccccc1 [Benznidazole, reference compound] |  |  |  |  | 100 | 3400 ± 710 | >37 |  |  | 4700 ± 1400 | 0.29 | 1200 ± 110 |  |  |  |  | FA (Fast-acting (FA) = IC50 value can be determined following 24 h incubation, <10-fold difference in the IC50 value from 24 to 72 h) |  |  |  | IC50 (HEP) (HEPG2 cells; HEPG2, 72 h, NA = not active, highest dose 79 µM unless given): NT (NA at 127 µM)
CCCCN(CCCC)c1c(C#N)cc(S(=O)(=O)Nc2ccccc2)cc1C#N [MMV 688467] |  |  | > 254 | 74 |  |  | >32 | > 34 | 10 |  | 0.91 |  |  |  |  |  | SA (TC) |  |  |  | Emax % (T.b. brucei) [1]: 99%; IC50 [1]: 310 ± 6.9 nM; Emax % (T. cruzi) ([2]; 48 h): 98%; Emax % (T. cruzi) ([2]; 48 h; listed as MMV688467): > 95%; IC50 [2, 18]: 2300 ± 460 nM; IC50 (HEPG2 cells; [19]): 23000 nM; Emax 24 h T. cruzi (T. cruzi [3]): 75%; IC50 (T. cruzi [3]; NA = not active at given concentration): 4400 ± 730 nM; Emax Wash Off (T. cruzi [4]; [20]): 100%; IC50 (T. cruzi [4]; [20]): 2100 ± 440 nM; Emax 24 h T.b. brucei (T.b. brucei [5]): 88%; IC50 (T.b. brucei [5]): 1200 ± 350 nM; Emax 48 h T.b. brucei (T.b. brucei [6]): 100%; IC50 (T.b. brucei [6]): 460 ± 18 nM
